Measured values taken from US12655116B2, “Substituted isophthalic acid diamides” (Bayer Aktiengesellschaft, priority 2020, dated 2026).

Columns and labels:
[1] = test system: ABUTH; assay: Pre-emergence herbicidal action against ABUTH; assay type: in vivo, Abutilon theophrasti; settings: for Pre-emergence action against ABUTH (herbicidal activity): 80 g/ha, scored visually after 3 weeks vs untreated controls (100% = plants have died, 0% = like control plants)
Summary of the method: (§1)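 Pre-emergence soil-surface spray of formulated compound (WP or EC; 600 to 800 l/ha; 0.2% wetting agent) over seeds sown in sandy loam. After 3 weeks under greenhouse conditions, damage is estimated visually in percent against untreated plants.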

[2] = test system: ALOMY; assay: Pre-emergence herbicidal action against ALOMY; assay type: in vivo, Alopecurus myosuroides; settings: for Pre-emergence action against ALOMY: 20 g/ha, scored visually after 3 weeks, 100% = plants have died, 0% = like control plants; for Pre-emergence action against ALOMY (herbicidal activity): 80 g/ha, scored visually after 3 weeks vs untreated controls (100% = plants have died, 0% = like control plants)
Summary of the method: as §1

[3] = test system: AMARE; assay: Pre-emergence herbicidal action against AMARE; assay type: in vivo, Amaranthus retroflexus
Summary of the method: as §1

[4] = test system: AVEFA; assay: Pre-emergence herbicidal action against AVEFA; assay type: in vivo, Avena fatua; settings: for Pre-emergence action against AVEFA in %: 80 g/ha
Summary of the method: as §1

[5] = test system: ECHCG; assay: Pre-emergence herbicidal action against ECHCG; assay type: in vivo, Echinochloa crus-galli; settings: 80 g/ha
Summary of the method: as §1

[6] = test system: LOLRI; assay: Pre-emergence herbicidal action against LOLRI; assay type: in vivo, Lolium rigidum; settings: 80 g/ha
Description: Seeds of monocotyledonous and dicotyledonous weed plants and crop plants are laid out in sandy loam soil in wood-fiber pots and covered with soil. The compounds of the invention, formulated in the form of wettable powders (WP) or as emulsion concentrates (EC), are then applied to the surface of the covering soil in the form of an aqueous suspension or emulsion at a water application rate equivalent to 600 to 800 l/ha, with addition of 0.2% wetting agent. After the treatment, the pots are placed in a greenhouse and kept under good growth conditions for the trial plants. The damage to the test plants is scored visually after a test period of 3 weeks by comparison with untreated controls (herbicidal activity in percent (%): 100% activity=the plants have died, 0% activity=like control plants). […] The tables below illustrate, in an illustrative manner, the post-emergence herbicidal action of the compounds of the invention, the herbicidal activity being stated in percent.

[7] = test system: MATIN; assay: Pre-emergence herbicidal action against MATIN; assay type: in vivo, Matricaria inodora
Summary of the method: as §1

[8] = test system: PHBPU; assay: Pre-emergence herbicidal action against PHBPU; assay type: in vivo, Pharbitis purpurea; settings: dosage 80 g/ha
Summary of the method: as §1

[9] = test system: SETVI; assay: Pre-emergence herbicidal action against SETVI; assay type: in vivo, Setaria viridis
Summary of the method: as §1

[10] = test system: VIOTR; assay: Pre-emergence herbicidal action against VIOTR; assay type: in vivo, Viola tricolor
Summary of the method: as §1

[11] = test system: DIGSA; assay: Pre-emergence herbicidal action against DIGSA; assay type: in vivo, Digitaria sanguinalis
Summary of the method: as §1

[12] = test system: AMARE; assay: Post-emergence herbicidal action against AMARE; assay type: in vivo, Amaranthus retroflexus; settings: 20 g/ha, visual assessment about 3 weeks after treatment, 100% = plants have died, 0% = like control plants
Summary of the method: (§2)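 Greenhouse plants in sandy loam were sprayed at the one-leaf stage, 2 to 3 weeks after sowing, with WP or EC formulations as aqueous suspension or emulsion (600 to 800 l/ha water, 0.2% wetting agent). Visual damage was scored about 3 weeks later versus untreated controls, 0% = like control, 100% = dead.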

[13] = test system: ECHCG; assay: Post-emergence herbicidal action against ECHCG; assay type: in vivo, Echinochloa crus-galli; settings: dosage 20 g/ha
Summary of the method: as §2

[14] = test system: PHBPU; assay: Post-emergence herbicidal action against PHBPU; assay type: in vivo, Pharbitis purpurea
Summary of the method: as §2

[15] = test system: SETVI; assay: Post-emergence herbicidal action against SETVI; assay type: in vivo, Setaria viridis
Summary of the method: as §2

[16] = test system: VERPE; assay: Post-emergence herbicidal action against VERPE; assay type: in vivo, Veronica persica; settings: 20 g/ha
Summary of the method: as §2

[17] = test system: VIOTR; assay: Post-emergence herbicidal action against VIOTR; assay type: in vivo, Viola tricolor
Summary of the method: as §2

[18] = test system: DIGSA; assay: Post-emergence herbicidal action against DIGSA; assay type: in vivo, Digitaria sanguinalis; settings: 20 g/ha
Summary of the method: as §2

[19] = test system: ALOMY; assay: Post-emergence herbicidal action against ALOMY; assay type: in vivo, Alopecurus myosuroides; settings: visual assessment about 3 weeks after treatment vs untreated controls
Summary of the method: as §2

[20] = 20 g/ha, scored visually after 3 weeks vs untreated controls, 100% = plants have died, 0% = like control plants
[21] = 80 g/ha, scored visually after 3 weeks vs untreated controls (100% = plants have died, 0% = like control plants)

SMILES | Pre-emergence action against ABUTH (herbicidal activity) [1] [%] | Pre-emergence action against ALOMY [2] [%] | Pre-emergence action against ALOMY (herbicidal activity) [2] [%] | Pre-emergence action against AMARE in % [3, 20] [%] | Pre-emergence action against AMARE in % [3, 21] [%] | Pre-emergence action against AVEFA in % [4] [%] | Pre-emergence action against ECHCG in % [5] [%] | Pre-emergence action against LOLRI in % [6] [%] | Pre-emergence action against MATIN in % ([7]; dosage 20 g/ha) [%] | Pre-emergence action against MATIN in % ([7]; dosage 80 g/ha) [%] | Pre-emergence action against PHBPU in % [8] [%] | Pre-emergence action against SETVI in % ([9]; dosage 20 g/ha) [%] | Pre-emergence action against SETVI in % ([9]; dosage 80 g/ha) [%] | Pre-emergence action against VIOTR in % ([10]; dosage 20 g/ha) [%] | Pre-emergence action against VIOTR in % ([10]; dosage 80 g/ha) [%] | Pre-emergence action against DIGSA in % ([11]; dosage 20 g/ha) [%] | Pre-emergence action against DIGSA in % ([11]; dosage 80 g/ha) [%] | Post-emergence action against ECHCG in % [13] [%] | Post-emergence action against SETVI in % ([15]; dosage 5 g/ha) [%] | Post-emergence action against SETVI in % ([15]; dosage 20 g/ha) [%] | further results
Cn1nnnc1NC(=O)c1ccc(C(F)(F)F)c(C(=O)NCC(F)F)c1Cl [Example 1-134] | 90 | 80 | 100 | 100 | 100 | 90 | 100 | 80 | 90 | 100 | 80 | 90 | 100 | 90 | 100 | 90 | 100 | 90 | 90 | 90 | Pre-emergence action against AVEFA ([4]; 20 g/ha, scored visually after 3 weeks, 100% = plants have died, 0% = like control plants): 80%; Post-emergence action at 20 g/ha against AMARE in % [12]: 90%; Post-emergence action against PHBPU in % ([14]; dosage 5 g/ha): 80%; Post-emergence action against PHBPU in % ([14]; dosage 20 g/ha): 90%; Post-emergence action against VERPE in % [16]: 80%; Post-emergence action against VIOTR in % ([17]; 5 g/ha): 90%; Post-emergence action against VIOTR in % ([17]; 20 g/ha): 90%; Post-emergence action against DIGSA [18]: 90%
Cn1nnnc1NC(=O)c1ccc(Br)c(C(=O)NCC(F)F)c1Cl [Example 1-182] | 100 | 80 | 100 | 100 | 100 | 90 | 100 | 80 | 90 | 100 | 90 | 100 | 100 | 90 | 100 | 100 | 100 | 80 | 90 | 100 | Pre-emergence action against ABUTH (herbicidal activity in percent) ([1]; dosage 20 g/ha, scored visually after 3 weeks vs untreated controls, 100% = plants have died, 0% = like control plants): 100%; Post-emergence action against ALOMY in % ([19]; dosage 5 g/ha): 90%; Post-emergence action against ALOMY in % ([19]; dosage 20 g/ha): 100%; Post-emergence action against VIOTR in % ([17]; 5 g/ha): 100%; Post-emergence action against VIOTR in % ([17]; 20 g/ha): 100%
